Source: patent US12102685B2, “Immodulator peptides covalently modified with small molecules” (priority 2020, dated 2024)
Marks after values point to notes of the source that are not given here. Square brackets hold non-standard residues; d marks the D form. Ends that are not written are not given here. Peptide text beside a SMILES is read from it.

Assays:
[1] = Iron binding of separately labeled peptides (x2E e); details: each peptide labeled separately; IM3 = 100; ferric iron
Procedure: (§1) Experiments were conducted by the procedure described above. Ferric iron-charged NTA-coated 96-well plates were used as described. 1 ug/well immodulator peptide complexed to Alexa-488-labeled streptavidin in PBS buffer was added (60 min at room temperature). The plate was washed and counted in a standard fluorometer (excitation/emission: 485/525 nm). The results (fluorescence) show improved iron-binding by the three peptides extended C-terminally by the AVD, (dA)VD, and FVS tripeptides. **p<0.01 vs IM3 control IM3: 200±29; IM4: 45±37**; IM5: 130±77; IM3AVD: 434±29**; IM3dAVD: 418±28**; IM3FVS: 371±33** • (c) Competition assay. The same procedure was used as the preceding experiment, except that 375 ng/well labeled IM3 peptide was used, plus 10× of the indicated unlabeled peptide. ‘No competing peptide’ control value was set to 100. *p<0.05 vs “no peptide” control Competing Peptide/Fluorescence • None: 100±38; IM4: 125±26; IM3: 63±27*; IM5: 40±14*; IM3AVD: 10±28* • (d) Competition assay. The same procedure was used as the preceding experiment, except that labeled IM3AVD peptide was used. **p<0.01 vs “no competing peptide” control • None: 100±9; IM4: 144±44; IM3: 35±16**; IM5: 30±19**; IM3AVD: 9±19** • (e) The same procedure was used as the preceding experiment, except that each peptide was labeled with Alexa-488-labeled streptavidin in PBS buffer and used separately. Binding to IM3 was set to =100. *p<0.05, **p<0.01 vs IM3 control. (Labeled Peptide/Fluorescence) IM1: 1.8±0.4**; IM2: 3.0±1.8**; IM3: 100.0±16.8; IM4: 7.2±1.7*; IM5: 86.7±6.4; IM6: 85.9±14.9; IM3AVD:137.7±11.8*; IM3dAVD:147.4±22.9*; IM3FVS: 101.5±10.5.

[2] = Strength of binding to iron, plate assay (x2E b); details: 1 ug/well peptide complexed to Alexa-488-streptavidin; ferric iron
Procedure: Immodulator peptides were extended C-terminally by three amino acids, to include a valine residue that is highly conserved in the “thyroglobulin type 1 motif”. The reasoning behind this attempt is that a longer conserved sequence might lead to a tighter fold overall, which might in turn result in increased metal-binding avidity. • (b) Strength of binding to iron was evaluated by plate assay.
as §1

[3] = test system: COL1 in HFF-1 dermal fibroblasts; assay: Collagen-1 ELISA in HFF-1 dermal fibroblasts (x11A); type: cell-based; details: peptide 2 uM, 72 hour; control (buffer) = 100
Procedure: Immune modulation functions of immodulator peptides have potential untility in the field of cosmetics. HFF-1 cell line was obtained from American Type Culture Collection (ATCC). Cells were grown in a T-75 flask in DMEM Medium containing 10% fetal bovine serum and penicillin-streptomycin at 37° C. in a humidified, 5% CO2 incubator. Cells ([…], 2,000 cells/well) were plated in a 96-well plate and incubated overnight at 37° C. in a humidified, 5% CO2 incubator. Next day, […] of compounds were added (quadruplicate wells). After 72 hour incubation with the compound, supernatants were collected for Collagen-1 ELISA assay and cell viability was measured in a luminometer after the addition of […] CellTiterGlo reagent (Promega Inc, Madison, WI) as recommended by the manufacturer.
Collagen stimulating activity of immodulator peptides in HFF-1 dermal fibroblasts. Peptides were added to cells at 2 uM. COL1 immunoreactivity was measured in the supernatants of cultured cells by ELISA using a rabbit monoclonal anti-COL1 primary antibody (Abcam, Cambridge, MA). Control (buffer) value of immunoreactivity was set to 100.

[4] = target: T1, AA111-228 DNA-binding domain of RXR-alpha (RXRa-DBD) (Homo sapiens, UniProt P19793); assay: Binding to RXRa-DBD (x3A); details: 1 ug/well RXRa-DBD, 800 ng/well SA488-labelled peptide; background subtracted
T1 construct: purchased Abcam, Cambridge, MA
T1 sequence (P19793 111-228): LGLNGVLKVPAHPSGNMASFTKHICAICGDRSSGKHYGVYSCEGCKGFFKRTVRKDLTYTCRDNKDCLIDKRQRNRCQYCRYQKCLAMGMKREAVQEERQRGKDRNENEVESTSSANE
Procedure: Binding of immodulator peptides to AA111-228 DNA-binding domain of RXR-alpha (RXRa-DBD). 1 ug/well recombinant RXRa-DBD (Abcam, Cambridge, MA) was adsorbed to wells of a 96-well plate for 60 minutes at RT, then blocked with 200 uL 1% BSA in PBS buffer overnight. Plate was washed and 800 ng/well Streptavidin-Alexa 488 conjugate (SA488)-labelled IM peptide was added. The plate was incubated for 60 min at room temperature, washed and counted in a standard fluorometer (excitation/emission 485/525 nm). Background (buffer alone) was subtracted.

[5] = Alexa488-SA-labelled IM1-IM6 binding to metal-charged NTA-coated plate (x2B d); details: no peptide background = 1.0
Procedure: NTA-metal-affinity fluorescence assay was performed using 96-well NTA-metal-coated plates readily available from commercial sources such as Qiagen (Germantown, MD). NTA was charged with ferrous or ferric iron, zinc, copper, calcium, vanadium, ruthenium, cobalt, titanium, manganese or other metals. 400 ng of FITC-labeled immodulator peptide (or biotinylated immodulator peptide complexed to Alexa-488-labeled streptavidin) in PBS buffer was added per plate. After incubation at room temperature for 60 minutes, excess peptide was washed off and peptide was detected by measuring fluorescence (excitation 490 nm, emmission 525 nm) in a fluorometer. • (a) Using FITC-labeled IM3 peptide (1 ug/well) in the fluorescent binding assay: • EDTA-treated control: 2,251±1,186 • Ferrous iron: 170,441±11,264 (p<0.001)* • Copper: 13,644±5566 (p<0.05)* • Calcium: 48,822±11,990 (p<0.01)* • *p values are relative to EDTA-treated control • (b) Competition binding assay to ferrous iron, calcium, copper and zinc-charged NTA-coated plates using FITC-labeled IM3 peptide (0.5 uM) and 8× (4 uM) unlabelled competitor peptides IM3N1, IM3N2 (*all comparisons to PBS control are p<0.01); # fluorescent value of binding to […] was set at 100.
Ferrous iron # (100±2.6*); Control (no metal): 6.4±3.1; Ferric iron: 94.1±6.6*; Calcium: 47.6±3.7*; Vanadium: 53.9±5.5*; Manganese: 54.4±11.2*; Cobalt: 25.4±2.3*; Copper: 58.4±6.4*; Zinc: 71.4±8.3*; Ruthenium: 67.8±8.3*; (d) Alexa488-SA-labelled immodulator peptide IM1, IM2, IM3, IM4, IM5, IM6 (400 ng/well) were bound to NTA-coated plate charged with the indicated metals: # background (no peptide) control set to 1.0;*p<0.05, **p<0.01 vs “no peptide”

[6] = Binding to Echelon PPI Arrays (x9B); design: key: 0=no binding; 1=low binding; 2=medium binding; 3=high binding; details: 100 pmol PPI spot, colorimetric readout
Source text: Binding of immodulator peptides to Echelon PPI Arrays. PPI arrays were purchased from Echelon Biosciences (Sal Lake City, UT) and used according to the manufacturer's recommendations. Colorimetric readout from each 100 pmol PPI spot in the array is expressed as 0=no binding, 1=low binding, 2=medium binding and 3=high binding. […] In addition, IM3 and IM5 show slight binding to PI(3,4,5)P3.

[7] = Binding to heparin-agarose spin column (x3D); details: 1 ug SA488-labelled peptide
Procedure: 1 ug Streptavidin-Alexa 488 conjugate (SA488)-labelled IM peptide in PBS buffer was loaded on a spin column packed with 0.2 ml bed volume heparin-agarose (G-Biosciences, St. Louis, MO). The column was centrifuged for 2 min at 2,000 G and the flow-through was collected. The column was then washed with 0.3 ml 1% BSA in PBS buffer and the column spin repeated. Flowthrough and wash were pooled and duplicate 20 uL aliquots counted in a standard fluorometer (excitation/emission 485/525 nm). Results are expressed as percentage of input counts that bound the heparin-agarose column, versus flowthrough. Percent counts bound to heparin-agarose resin are shown below. IM3, IM5 and IM6 peptides bind heparin-agarose in this assay.

fluorescence of labeled peptide [1] | fluorescence (iron binding) [2] | fluorescence [4] | fluorescence ([5]; Calcium) | fluorescence ([5]; Copper) | fluorescence ([5]; Ferrous iron, 400 ng/well) | fluorescence ([5]; Zinc) | binding to PI spot [6] | binding to PI(3,4,5)P3 spot [6] | binding to PI(4)P1 spot [6] | binding to PI(4,5)P2 spot [6] | Percent Flowthrough [7] | Percent retained [7] | Compound | COL1 immunoreactivity in supernatant [3]
101.5±10.5 | 371±33 | – | – | – | – | – | – | – | – | – | – | – | CC(C)[C@H](NC(=O)[C@H](Cc1ccccc1)NC(=O)[C@H](Cc1c[nH]c2ccccc12)NC(=O)[C@H](CS)NC(=O)[C@H](Cc1ccccc1)NC(=O)CNC(=O)[C@H](CCCNC(=N)N)NC(=O)[C@H](CCCCN)NC(=O)[C@H](CCCNC(=N)N)NC(=O)CNC(=O)[C@H](CCCCN)NC(=O)[C@H](CO)NC(=O)[C@@H]1CCCN1C(=O)[C@H](CCCNC(=N)N)NC(=O)[C@H](CS)NC(=O)[C@H](CCC(N)=O)NC(=O)[C@H](CCCCN)NC(=O)[C@H](CCCCN)NC(=O)[C@H](CCCCN)NC(=O)[C@H](Cc1ccc(O)cc1)NC(=O)[C@H](Cc1ccccc1)NC(=O)CNC(=O)[C@H](CCCCN)NC(=O)[C@@H](N)CCCCN)C(=O)N[C@@H](CO)C(=O)O [IM3FVS] (H-KKGFYKKKQCRPSKGRKRGFCWFVS-OH; N-terminus and C-terminus assumed) | –
85.9±14.9 | – | 587±192 | 15.1 ± 1.9** | 2.4 ± 2.4** | 20.6 ± 0.8** | 8.4 ± 0.4** | 0 | 0 | 0 | 1 | 2.0% | 98.0% | N=C(N)NCCC[C@H](NC(=O)[C@H](CCCNC(=N)N)NC(=O)[C@H](CCC(N)=O)NC(=O)CNC(=O)[C@H](CCC(N)=O)NC(=O)[C@H](CO)NC(=O)[C@H](CO)NC(=O)[C@H](CCCNC(=N)N)NC(=O)[C@H](CS)NC(=O)[C@H](CCC(N)=O)NC(=O)[C@H](CCCNC(=N)N)NC(=O)[C@H](CCCCN)NC(=O)[C@H](CCCNC(=N)N)NC(=O)[C@H](Cc1ccc(O)cc1)NC(=O)[C@H](Cc1ccccc1)NC(=O)CNC(=O)[C@H](CCCNC(=N)N)NC(=O)[C@@H](N)Cc1c[nH]cn1)C(=O)NCC(=O)N1CCC[C@H]1C(=O)N[C@@H](CS)C(=O)N[C@@H](Cc1c[nH]c2ccccc12)C(=O)O [IM6] (H-HRGFYRKRQCRSSQGQRRGPCW-OH; N-terminus and C-terminus assumed) | 112
147.4±22.9 | 418±28 | – | – | – | – | – | – | – | – | – | – | – | KKGFYKKKQCRPSKGRKRGFCW(dA)VD (KKGFYKKKQCRPSKGRKRGFCW[dA]VD; cysteine pairing not given here) [IM3dAVD, IM3 extended C-terminally by (dA)VD] | –
